Data on 34 compounds can be found in patent publication US20240246908A1 (ORION CORPORATION, priority 2021, published 2024).

Structures are written as SMILES.

One may read the IC50 as the point on the concentration scale where inhibition reaches its midpoint.

The experiment concerns YAP-TEAD. The experiment is described as follows: TEAD inhibition, Hippo Pathway TEAD Reporter MCF-7 luciferase assay. Type of experiment: cell-based. The note with it: Homo sapiens, MCF7, 24 h, Hippo Pathway TEAD Reporter MCF-7 cells, luciferase activity after 24 h; read-out: IC50 of the test compounds on YAP-TEAD inhibition (Group). Summed up: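 IC50 derived from ONE-Glo luciferase luminescence after 24 h compound exposure (11 concentrations in quadruplicate, 0.1% DMSO control). Reporter: MCF-7 line expressing firefly luciferase under TEAD elements, constitutively activated by nuclear YAP1.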

In the case of `COc1ccc(Oc2ccc(C(F)(F)F)cc2)cc1NC(=O)C1(C)CCC(=O)NC1` (stereo not shown) [Compound 121, N-(2-Methoxy-5-(4-(trifluoromethyl)phenoxy)phenyl)-3-methyl-6-oxo-piperidine-3-carboxamide], the 50% inhibitory concentration (IC50) lay in the range of 301 to 2000 nM.

Regarding `COc1ccc(O[C@H]2CCC[C@H](C(F)(F)F)C2)cc1NC(=O)[C@H]1CCC(=O)N1C` [Compound 269, (R)—N-(2-Methoxy-5-(((1S,3S)-3-(trifluoromethyl)cyclohexyl)oxy)phenyl)-1-methyl-5-oxopyrrolidine-2-carboxamide], the IC50 lay in the range of 50 to 300 nM.

For `COc1ccc(Oc2cc(C(F)(F)F)ccn2)cc1NC(=O)[C@H]1CCC(=O)N1C` [Compound 393, (R)—N-(2-Methoxy-5-((4-(trifluoromethyl)pyridin-2-yl)oxy)phenyl)-1-methyl-5-oxopyrrolidine-2-carboxamide], the IC50 was 301 to 2000 nM.

Take `COc1ccc(Oc2ccc(Cl)c(Cl)c2)cc1NC(=O)C1CCC(=O)N1C` (stereo not shown) [Compound 222, N-(5-(3,4-Dichlorophenoxy)-2-methoxyphenyl)-1-methyl-5-oxopyrrolidine-2-carboxamide]: the IC50 is < 50 nM.

Take `COc1ccc(COc2cccc(F)c2)cc1NC(=O)C1(C)CCNC1=O` (stereo not shown) [Compound 26, N-(5-((3-Fluorophenoxy)methyl)-2-methoxyphenyl)-3-methyl-2-oxopyrrolidine-3-carboxamide]: the 50% inhibitory concentration (IC50) lay in the range of 301 to 2000 nM.

Consider `CN1C(=O)CCC1C(=O)Nc1cc(COc2cccc(F)c2)cc2c1OCCO2` (stereo not shown) [Compound 58, N-(7-((3-Fluorophenoxy)methyl)-2,3-dihydrobenzo[b][1,4]dioxin-5-yl)-1-methyl-5-oxopyrrolidine-2-carboxamide], for which the half-inhibitory concentration (IC50) was in the range of 301 to 2000 nM.

On to `COc1ccc(Oc2ccc(C(F)(F)F)cc2)cc1NC(=O)C1CCN(C)C(=O)C1` (stereo not shown) [Compound 323, N-(2-Methoxy-5-(4-(trifluoromethyl)phenoxy)phenyl)-1-methyl-2-oxo-piperidine-4-carboxamide], for which the IC50 lay in the range of 301 to 2000 nM.

In the case of `CN1C(=O)CC[C@@H]1C(=O)Nc1cc(O[C@H]2CC[C@H](C(F)(F)F)CC2)cc2c1OCC2` [Compound 151, (R)-1-Methyl-5-oxo-N-(5-(((trans)-4-(trifluoromethyl)cyclohexyl)oxy)-2,3-dihydrobenzofuran-7-yl)pyrrolidine-2-carboxamide], the half-maximal inhibitory concentration (IC50) was < 50 nM.

As to `O=C1CCC(C(=O)Nc2cc(COc3cccc(F)c3)cc3c2OCO3)N1` (stereo not shown) [Compound 27, N-(6-((3-Fluorophenoxy)methyl)benzo[d][1,3]dioxol-4-yl)-5-oxopyrrolidine-2-carboxamide], the concentration for half-maximal inhibition (IC50) fell in the range of 50 to 300 nM.

On to `COc1ccc(Oc2ccc(C(F)(F)F)cc2)cc1NC(=O)C1CCC(=O)N1C1CC1` (stereo not shown) [Compound 110, 1-Cyclopropyl-N-(2-methoxy-5-(4-(trifluoromethyl)phenoxy)phenyl)-5-oxo-pyrrolidine-2-carboxamide], for which the concentration for half-maximal inhibition (IC50) was < 50 nM.

For `COc1ccc(O[C@H]2CC[C@@H](C(F)(F)F)CC2)cc1NC(=O)[C@H]1CCC(=O)N1C` [Compound 209, (R)—N-(2-Methoxy-5-(((cis)-4-(trifluoromethyl)cyclohexyl)oxy)phenyl)-1-methyl-5-oxopyrrolidine-2-carboxamide], the IC50 is < 50 nM.

In the case of `COc1ccc(Oc2cccc(C(F)(F)F)c2)cc1NC(=O)CC1CCC(=O)N1` (stereo not shown) [Compound 9, N-(2-Methoxy-5-(3-(trifluoromethyl)phenoxy)phenyl)-2-(5-oxopyrrolidin-2-yl)acetamide], the half-inhibitory concentration (IC50) lay within 301 to 2000 nM.

As to `CN1C(=O)NC[C@@H]1C(=O)Nc1cc(Oc2ccc(C(F)(F)F)cn2)ccc1F` [Compound 196, (R)—N-(2-Fluoro-5-((5-(trifluoromethyl)pyridin-2-yl)oxy)phenyl)-3-methyl-2-oxoimidazolidine-4-carboxamide], the IC50 is < 50 nM.

For `COc1ccc(Oc2ccc(C#N)c(Cl)c2)cc1NC(=O)[C@@H]1CCC(=O)N1C` [Compound 310, (S)—N-(5-(3-Chloro-4-cyanophenoxy)-2-methoxyphenyl)-1-methyl-5-oxo-pyrrolidine-2-carboxamide], the IC50 lay in the range of 50 to 300 nM.

Turning to `COc1ccc(Oc2ccc(C(F)(F)F)cc2)cc1NC(=O)[C@@H]1CCCN1S(C)(=O)=O` [Compound 311, (S)—N-(2-Methoxy-5-(4-(trifluoromethyl)phenoxy)phenyl)-1-(methylsulfonyl)-pyrrolidine-2-carboxamide], the half-maximal inhibitory concentration (IC50) fell in the range of 301 to 2000 nM.

`COc1ccc(Oc2ccc(C(F)(F)F)cn2)cc1NC(=O)C1CNC(=O)C1` (stereo not shown) [Compound 344, N-(2-Methoxy-5-((5-(trifluoromethyl)pyridin-2-yl)oxy)phenyl)-5-oxopyrrolidine-3-carboxamide carboxamide]: the IC50 lay within 301 to 2000 nM.

With `COc1ccc(CNc2cccc(F)c2)cc1NC(=O)C1CCC(=O)N1` (stereo not shown) [Compound 246, N-(5-(((3-Fluorophenyl)amino)methyl)-2-methoxyphenyl)-5-oxopyrrolidine-2-carboxamide], the IC50 lay within 301 to 2000 nM.

As to `CN1C(=O)CCC1C(=O)Nc1cc(COc2cccc(F)c2)cc2c1OCC2` (stereo not shown) [Compound 32, N-(5-((3-Fluorophenoxy)methyl)-2,3-dihydrobenzofuran-7-yl)-1-methyl-5-oxo-pyrrolidine-2-carboxamide], the concentration for half-maximal inhibition (IC50) was 50 to 300 nM.

On to `CN1C(=O)NC[C@@H]1C(=O)Nc1cc(Oc2ccc(C(F)(F)F)cn2)cc2ccoc12` [Compound 217, (R)-3-Methyl-2-oxo-N-(5-((5-(trifluoromethyl)pyridin-2-yl)oxy)benzofuran-7-yl)imidazoledine-4-carboxamide], for which the IC50 was < 50 nM.

In the case of `CN1C(=O)CCC1C(=O)Nc1cc(Oc2cccc(C(F)(F)F)c2)cc2c1OCO2` (stereo not shown) [Compound 34, 1-Methyl-5-oxo-N-(6-(3-(trifluoromethyl)phenoxy)benzo[d][1,3]dioxol-4-yl)-pyrrolidine-2-carboxamide], the IC50 was in the range of 50 to 300 nM.

`COc1ccc(Oc2ccc(C(F)(F)F)cc2)cc1NC(=O)C1CCC(=O)N1C(=O)C1CCC(=O)N1` (stereo not shown) [Compound 229, N-(2-Methoxy-5-(4-(trifluoromethyl)phenoxy)phenyl)-5-oxo-1-(5-oxopyrrolidine-2-carbonyl)pyrrolidine-2-carboxamide]: the IC50 was < 50 nM.

As to `COc1ccc(Oc2ccc(C(F)(F)F)cc2)cc1NC(=O)C1CCC(=O)N1C1CCOC1` (stereo not shown) [Compound 138, N-(2-Methoxy-5-(4-(trifluoromethyl)phenoxy)phenyl)-5-oxo-1-(tetrahydrofuran-3-yl)pyrrolidine-2-carboxamide], the concentration for half-maximal inhibition (IC50) was 50 to 300 nM.

On to `COc1ccc(Oc2ccc(C(F)(F)F)cc2O)cc1NC(=O)C1CCC(=O)N1C` (stereo not shown) [Compound 411, N-(5-(2-Hydroxy-4-(trifluoromethyl)phenoxy)-2-methoxyphenyl)-1-methyl-5-oxopyrrolidine-2-carboxamide], for which the half-inhibitory concentration (IC50) was 301 to 2000 nM.

Take `CN1C(=O)CC[C@H]1C(=O)Nc1cc(Oc2ccc(C(F)F)cc2)cc2c1OCC2` [Compound 214, (S)—N-(5-(4-(Difluoromethyl)phenoxy)-2,3-dihydrobenzofuran-7-yl)-1-methyl-5-oxopyrrolidine-2-carboxamide]: the IC50 was < 50 nM.

Regarding `COc1ccc(NC(=O)C2CCC(=O)N2C)cc1Oc1ccc(C(F)(F)F)cc1` (stereo not shown) [Compound 259, N-(4-Methoxy-3-(4-(trifluoromethyl)phenoxy)phenyl)-1-methyl-5-oxo-pyrrolidine-2-carboxamide], the IC50 lay within 50 to 300 nM.

Consider `COc1cc(F)c(Oc2cccc(C(F)(F)F)c2)cc1NC(=O)C1CCC(=O)N1C(C)=O` (stereo not shown) [Compound 39, 1-Acetyl-N-(4-fluoro-2-methoxy-5-(3-(trifluoromethyl)phenoxy)phenyl)-5-oxopyrrolidine-2-carboxamide], for which the half-maximal inhibitory concentration (IC50) lay within 50 to 300 nM.

Take `CN1C(=O)CC[C@H]1C(=O)Nc1cc(Oc2ccc(F)c(F)c2)cc2c1OCC2` [Compound 100, (S)—N-(5-(3,4-Difluorophenoxy)-2,3-dihydrobenzofuran-7-yl)-1-methyl-5-oxopyrrolidine-2-carboxamide]: the half-inhibitory concentration (IC50) is < 50 nM.

Take `CCN1C(=O)CC[C@H]1C(=O)Nc1cc(Oc2ccc(C(F)(F)F)cn2)cc2c1OCC2` [Compound 171, (S)-1-Ethyl-5-oxo-N-(5-((5-(trifluoromethyl)pyridin-2-yl)oxy)-2,3-dihydro-benzofuran-7-yl)pyrrolidine-2-carboxamide]: the half-inhibitory concentration (IC50) was < 50 nM.

Turning to `COc1ccc(COC2CCC(F)(F)CC2)cc1NC(=O)C1CCC(=O)N1C` (stereo not shown) [Compound 205, N-(5-(((4,4-Difluorocyclohexyl)oxy)methyl)-2-methoxyphenyl)-1-methyl-5-oxopyrrolidine-2-carboxamide], the IC50 lay in the range of 301 to 2000 nM.

In the case of `COc1ccc(Oc2cnc(F)c(C)c2)cc1NC(=O)[C@H]1CCC(=O)N1C` [Compound 263, (R)—N-(5-((6-fluoro-5-methylpyridin-3-yl)oxy)-2-methoxyphenyl)-1-methyl-5-oxopyrrolidine-2-carboxamide], the IC50 is 50 to 300 nM.

With `COc1ccc(Nc2ccc(C(F)(F)F)cc2)cc1NC(=O)C1CCC(=O)N1C` (stereo not shown) [Compound 74, N-(2-Methoxy-5-((4-(trifluoromethyl)phenyl)amino)phenyl)-1-methyl-5-oxo-pyrrolidine-2-carboxamide], the IC50 lay in the range of 50 to 300 nM.

Regarding `CN1C(=O)CC[C@@H]1C(=O)Nc1cc(Oc2ccc(C(F)(F)F)cc2)cc2c1OCC2` [Compound 99, (R)-1-Methyl-5-oxo-N-(5-(4-(trifluoromethyl)phenoxy)-2,3-dihydrobenzofuran-7-yl)pyrrolidine-2-carboxamide], the IC50 is < 50 nM.

`COc1ccc(/C=C/C2CCOCC2)cc1NC(=O)C1CCC(=O)N1C` (stereo not shown) [Compound 64, (E)-N-(2-Methoxy-5-(2-(tetrahydro-2H-pyran-4-yl)vinyl)phenyl)-1-methyl-5-oxopyrrolidine-2-carboxamide]: the IC50 lay in the range of 301 to 2000 nM.

For `CN1C(=O)NCC1C(=O)Nc1cc(Oc2ccc(C(F)(F)F)cc2)cc2c1OCCO2` (stereo not shown) [Compound 192, 3-Methyl-2-oxo-N-(7-(4-(trifluoromethyl)phenoxy)-2,3-dihydrobenzo[b][1,4]-dioxin-5-yl)imidazolidine-4-carboxamide], the IC50 was < 50 nM.
